Assay results as given in PubChem BioAssay AID248 (DTP/NCI, 2004).
Where “and” joins values, the source holds several entries; their conditions need not be identical. Equal values may be shown once. Toxic doses and inconclusive results are not listed.

System: L1210 leukemia ip in BDF1 mice, survival T/C
Experiment: NCI In Vivo Anticancer Drug Screen. Data for tumor model L1210 Leukemia (intraperitoneal) in B6D2F1 (BDF1) mice
Details: endpoint: mean survival time, higher = longer survival
How it was run: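 Transplanted-tumor mice were given test agent; controls received vehicle only. Survival readings from the two groups were divided (treated over control).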

[1] = dose: 100.0 mg/kg/injection, schedule: Q04DX003 (ip), vehicle: saline with Tween-80
[2] = dose: 200.0 mg/kg/injection, schedule: Q04DX003 (ip), vehicle: saline with Tween-80
[3] = dose: 50.0 mg/kg/injection, schedule: Q01DX009 (ip), vehicle: saline with Tween-80
[4] = dose: 100.0 mg/kg/injection, schedule: Q01DX009 (ip), vehicle: saline with Tween-80
[5] = dose: 200.0 mg/kg/injection, schedule: Q01DX009 (ip), vehicle: saline with Tween-80
[6] = dose: 100.0 mg/kg/injection, schedule: Q01DX001 (ip), vehicle: Klucel (hydroxypropylcellulose) (HPC)
[7] = dose: 200.0 mg/kg/injection, schedule: Q01DX001 (ip), vehicle: Klucel (hydroxypropylcellulose) (HPC)
[8] = dose: 400.0 mg/kg/injection, schedule: Q01DX001 (ip), vehicle: Klucel (hydroxypropylcellulose) (HPC)

In the case of `O[C@H](CN1CC1)[C@@H](O)CN1CC1`, the T/C (dose: 0.05 mg/kg/injection, schedule: Q01DX010 (oral), vehicle: other) is reported as 114 % of control, the T/C (dose: 0.05 mg/kg/injection, schedule: Q01DX010 (oral), vehicle: saline) is reported as 111 % of control and the T/C (dose: 0.05 mg/kg/injection, schedule: Q01DX Z (ip), vehicle: methylcellulose (MC)) is reported as 154 % of control. For the same molecule, the T/C (dose: 0.1 mg/kg/injection, schedule: Q01DX010 (oral), vehicle: saline) was 118 % of control, the T/C (dose: 0.1 mg/kg/injection, schedule: Q01DX Z (ip), vehicle: methylcellulose (MC)) was 87 % of control and the T/C (dose: 0.1 mg/kg/injection, schedule: Q01DX Z (oral), vehicle: saline) was 101 % of control. The T/C (dose: 0.13 mg/kg/injection, schedule: Q01DX009 (ip), vehicle: saline) was 187 % of control and 192 % of control, the T/C (dose: 0.2 mg/kg/injection, schedule: Q01DX010 (oral), vehicle: other) was 157 % of control and the T/C (dose: 0.25 mg/kg/injection, schedule: Q01DX009 (ip), vehicle: saline) was 204 % of control and 206 % of control. For the same molecule, the T/C (dose: 0.3 mg/kg/injection, schedule: Q01DX Z (oral), vehicle: saline) was 111 % of control, the T/C (dose: 0.4 mg/kg/injection, schedule: Q01DX010 (oral), vehicle: saline) was 164 % of control and the T/C (dose: 0.44 mg/kg/injection, schedule: Q01DX Z (oral), vehicle: saline) was 172 % of control. For the same molecule, the T/C (dose: 0.5 mg/kg/injection, schedule: Q01DX009 (ip), vehicle: saline) was 221 % of control and 257 % of control, the T/C (dose: 0.66 mg/kg/injection, schedule: Q01DX Z (oral), vehicle: saline) was 182 % of control and the T/C (dose: 0.8 mg/kg/injection, schedule: Q01DX010 (oral), vehicle: other) was 88 % of control. For the same molecule, the T/C (dose: 0.8 mg/kg/injection, schedule: Q01DX010 (oral), vehicle: saline) was 108 % of control, the T/C (dose: 1.0 mg/kg/injection, schedule: Q01DX009 (ip), vehicle: saline) was 104 % of control and 88 % of control and the T/C (dose: 1.0 mg/kg/injection, schedule: Q01DX Z (ip), vehicle: methylcellulose (MC)) was 121 % of control. For the same molecule, the T/C (dose: 1.0 mg/kg/injection, schedule: Q01DX Z (oral), vehicle: saline) was 122 % of control and the T/C (dose: 1.5 mg/kg/injection, schedule: Q01DX Z (oral), vehicle: saline) was 97 % of control.

For `COCC1OC(Nc2ccccc2)C(OC)C(OC)C1OC` (stereo unspecified), the T/C [1] was 89 % of control, the T/C [2] was 94 % of control and the T/C (dose: 400.0 mg/kg/injection, schedule: Q04DX003 (ip), vehicle: saline with Tween-80) was 89 % of control.

`c1cc(Cc2ccc3c(c2)OCO3)c[nH]1` was tested, and the T/C (dose: 50.0 mg/kg/injection, schedule: Q04DX002 (ip), vehicle: saline with Tween-80) was 103 % of control, the T/C (dose: 100.0 mg/kg/injection, schedule: Q04DX002 (ip), vehicle: saline with Tween-80) was 110 % of control and the T/C (dose: 200.0 mg/kg/injection, schedule: Q04DX002 (ip), vehicle: saline with Tween-80) was 100 % of control.

In the case of `CC(C#N)C(N)=O` (stereo unspecified), the T/C (dose: 12.5 mg/kg/injection, schedule: Q04DX003 (ip), vehicle: saline) is reported as 97 % of control, the T/C (dose: 25.0 mg/kg/injection, schedule: Q04DX003 (ip), vehicle: saline) is reported as 94 % of control and the T/C (dose: 50.0 mg/kg/injection, schedule: Q04DX003 (ip), vehicle: saline) is reported as 105 % of control.

With `Cc1ccc(NC(=O)NCC2(C)CC(NC(=O)Nc3ccc(C)cc3)CC(C)(C)C2)cc1` (stereo unspecified) the T/C [3] was 87 % of control, the T/C [1] was 91 % of control and the T/C [2] was 91 % of control.

For `O=C(Nc1ccc(CCO)cc1)Nc1cc([N+](=O)[O-])ccc1Cl`, the T/C (dose: 12.5 mg/kg/injection, schedule: Q01DX009 (ip), vehicle: Klucel (hydroxypropylcellulose) (HPC)) was 102 % of control, the T/C (dose: 25.0 mg/kg/injection, schedule: Q01DX009 (ip), vehicle: Klucel (hydroxypropylcellulose) (HPC)) was 104 % of control and the T/C (dose: 50.0 mg/kg/injection, schedule: Q01DX009 (ip), vehicle: Klucel (hydroxypropylcellulose) (HPC)) was 91 % of control.

For `O=C(O)CCS`, the T/C (dose: 50.0 mg/kg/injection, schedule: Q01DX001 (ip), vehicle: saline) was 98 % of control.

In the case of `C[As](C)Sc1ccnc(S[As](C)C)n1`, the T/C [4] is reported as 102 % of control, the T/C [1] is reported as 96 % of control and the T/C [5] is reported as 107 % of control. The T/C [2] was 96 % of control.

`CCCCC(CC)COC(=O)C[N+](C)(C)CCOC(c1ccccc1)c1ccccc1` (stereo unspecified) was tested, and the T/C (dose: 6.25 mg/kg/injection, schedule: Q04DX003 (ip), vehicle: saline with Tween-80) was 91 % of control and the T/C (dose: 12.5 mg/kg/injection, schedule: Q04DX003 (ip), vehicle: saline with Tween-80) was 97 % of control.

With `CCN(CC)CCNc1ccc([N+](=O)[O-])c2sc3ccccc3c(=O)c12` the T/C (dose: 17.7 mg/kg/injection, schedule: Q01DX Z (ip), vehicle: carboxymethylcellulose (CMC)) was 121 % of control, the T/C (dose: 37.0 mg/kg/injection, schedule: Q01DX Z (ip), vehicle: methylcellulose (MC)) was 223 % of control and the T/C (dose: 40.0 mg/kg/injection, schedule: Q01DX Z (ip), vehicle: carboxymethylcellulose (CMC)) was 152 % of control. For the same molecule, the T/C (dose: 56.0 mg/kg/injection, schedule: Q01DX Z (ip), vehicle: methylcellulose (MC)) was 201 % of control, the T/C (dose: 60.0 mg/kg/injection, schedule: Q01DX Z (ip), vehicle: carboxymethylcellulose (CMC)) was 156 % of control and the T/C (dose: 90.0 mg/kg/injection, schedule: Q01DX Z (ip), vehicle: carboxymethylcellulose (CMC)) was 181 % of control. For the same molecule, the T/C (dose: 126.0 mg/kg/injection, schedule: Q01DX Z (ip), vehicle: methylcellulose (MC)) was 115 % of control.

In the case of `CCOC(=O)C=C1CCN(C)CC1`, the T/C [3] is reported as 104 % of control, the T/C (dose: 75.0 mg/kg/injection, schedule: Q01DX001 (ip), vehicle: saline) is reported as 97 % of control and the T/C [4] is reported as 98 % of control. For the same molecule, the T/C (dose: 150.0 mg/kg/injection, schedule: Q01DX001 (ip), vehicle: saline) was 103 % of control, the T/C [5] was 97 % of control and the T/C (dose: 300.0 mg/kg/injection, schedule: Q01DX001 (ip), vehicle: saline) was 101 % of control.

In the case of `CNC(=S)n1ncnc1N`, the T/C (dose: 25.0 mg/kg/injection, schedule: Q01DX009 (ip), vehicle: saline) is reported as 102 % of control, the T/C (dose: 50.0 mg/kg/injection, schedule: Q01DX009 (ip), vehicle: saline) is reported as 114 % of control and the T/C (dose: 100.0 mg/kg/injection, schedule: Q01DX009 (ip), vehicle: saline) is reported as 109 % of control. The T/C (dose: 100.0 mg/kg/injection, schedule: Q04DX003 (ip), vehicle: saline) was 104 % of control.

In the case of `CC(C)=CCC1=C(Cl)C(=O)c2ccccc2C1=O`, the T/C [6] is reported as 96 % of control, the T/C [7] is reported as 104 % of control and the T/C [8] is reported as 101 % of control.

`O=C1c2ccccc2C(=O)N1CCl` was tested, and the T/C [6] was 93 % of control, the T/C [7] was 104 % of control and the T/C [8] was 114 % of control.

For `c1ccc2c(c1)CCN(C1=NCCO1)C2`, the T/C (dose: 9.5 mg/kg/injection, schedule: Q01DX001 (ip), vehicle: saline) was 112 % of control, the T/C (dose: 10.0 mg/kg/injection, schedule: Q04DX003 (ip), vehicle: saline) was 97 % of control and the T/C (dose: 19.0 mg/kg/injection, schedule: Q01DX001 (ip), vehicle: saline) was 100 % of control. For the same molecule, the T/C (dose: 20.0 mg/kg/injection, schedule: Q04DX003 (ip), vehicle: saline) was 94 % of control, the T/C (dose: 38.0 mg/kg/injection, schedule: Q01DX001 (ip), vehicle: saline) was 101 % of control and the T/C (dose: 40.0 mg/kg/injection, schedule: Q04DX003 (ip), vehicle: saline) was 90 % of control.

`CN1CCN(C(=O)Cc2c[nH]c3ccccc23)CC1` was tested, and the T/C (dose: 6.25 mg/kg/injection, schedule: Q01DX009 (ip), vehicle: saline with Tween-80) was 104 % of control, the T/C (dose: 12.5 mg/kg/injection, schedule: Q01DX009 (ip), vehicle: saline with Tween-80) was 100 % of control and the T/C (dose: 25.0 mg/kg/injection, schedule: Q01DX009 (ip), vehicle: saline with Tween-80) was 120 % of control and 91 % of control. For the same molecule, the T/C (dose: 25.0 mg/kg/injection, schedule: Q04DX003 (ip), vehicle: saline with Tween-80) was 100 % of control, the T/C [3] was 95 % of control and 117 % of control and the T/C (dose: 50.0 mg/kg/injection, schedule: Q04DX003 (ip), vehicle: saline with Tween-80) was 102 % of control. For the same molecule, the T/C [4] was 115 % of control and 88 % of control and the T/C [1] was 103 % of control and 108 % of control.

For `Cc1ccc(C)c(CCC(C)CCCC(C)C)c1` (stereo unspecified), the T/C (dose: 100.0 mg/kg/injection, schedule: Q01DX001 (ip), vehicle: saline) was 97 % of control and the T/C (dose: 200.0 mg/kg/injection, schedule: Q01DX001 (ip), vehicle: saline) was 104 % of control.

With `OC(c1ccccc1)(c1ccccc1)C1CCc2cc3ccccc3nc21` (stereo unspecified) the T/C [3] was 95 % of control, the T/C [4] was 98 % of control and the T/C [5] was 95 % of control.

`Cc1ccc(S(=O)(=O)OCC2OC(n3cnc4c(N)ncnc43)C(O)C2O)cc1` (stereo unspecified) was tested, and the T/C (dose: 100.0 mg/kg/injection, schedule: Q01DX005 (ip), vehicle: saline) was 105 % of control and the T/C (dose: 200.0 mg/kg/injection, schedule: Q01DX005 (ip), vehicle: saline) was 95 % of control.
